Measurements: patent US20230061116A1, “TARGETING PAR1 AND PAR2 TO REGULATE LIPID AND CHOLESTEROL ABUNDANCE” (Mayo Foundation for Medical Education and Research, priority 2020, published 2023)

B1: BDNF: subtherapeutic growth factor BDNF (protein, UniProt P23560 19-247, looked up)
Neurotrophic factor BDNF …: APMKEANIRGQGGLAYPGVRTHGTLESVNGPKAGSRGLTSLADTFEHVIEELLDEDQKVRPNEENNKDADLYTSRVMLSSQVPLEPPLLFLLEEYKNYLDAANMSMRVRRHSDPARRGELSVCDSISEWVTAADKKTAVDMSGGTVTVLEKVPVSKGQLKQYFYETKCNPMGYTKEGCRGIDKRHWNSQCRTTQSYVRALTMDSKKRIGWRFIRIDTSCVCTLTIKRGR

Legend:
[1] = test system: primary mouse cortical neurons; assay: Neurite outgrowth (TUJ1+ area) in primary cortical neurons; type: cell-based; conditions: co-treatment with subtherapeutic BDNF; 24 and 72 hours of treatment (FIG. 12)
Description: FIG. 12 contains a series of images showing that inhibition of PAR1 signaling accelerates neurite outgrowth in primary mouse cortical neurons. Murine neurons were cultured for 24 hours before addition of the PAR1 inhibitor Vorapaxar, subtherapeutic growth factor BDNF, or both. […] Neurite outgrowth was quantified by staining for TUJI (a cytoskeletal protein present in both axons and dendrites) and measuring TUJI+ area (the average of 5 randomly selected fields per well, 6 wells per treatment). Production of lipids and cholesterol, major constituents of neuronal membranes, was required to grow both axons and dendrites. Results are plotted in the graphs in the right panel (*P<0,05 SNK, n=6 all groups, both timepoints). […] Murine neurons were cultured for 24 hours before addition of the PAR1 inhibitor Vorapaxar, subtherapeutic growth factor BDNF, or both. […] Neurite outgrowth was quantified by staining for TUJ1 (a cytoskeletal protein present in both axons and dendrites) and measuring TUJ1+ area (the average of 5 randomly selected fields per well, 6 wells per treatment). Production of lipids and cholesterol, major constituents of neuronal membranes, was required to grow both axons and dendrites.

Murine neurons = assay: Growth of new neurites after transection (scratch) injury in vitro; type: cell-based, mouse; conditions: co-treatment with subtherapeutic BDNF, added following scratch injury (FIG. 14)
Description: FIG. 14 contains a series of images showing that inhibition of PAR1 signaling accelerates growth of new neurites following transection injury in vitro. Murine neurons were cultured in vitro to confluence, and then a large wound was created by mechanically scratching the center of each field. The PAR1 inhibitor Vorapaxar, subtherapeutic growth factor BDNF, or both were added following injury. […] Results are plotted in the graph in the right panel (*P<0.05 SNK, n=6 all groups). Inhibition of PAR1 signaling accelerated growth of new neurites following transection injury in vitro (FIG. 14). Murine neurons were cultured in vitro to confluence, and then a large wound was created by mechanically scratching the center of each field. The PAR1 inhibitor Vorapaxar, subtherapeutic growth factor […], or both were added following injury.

[2] = test system: primary mouse cortical neurons; assay: Neurite outgrowth under statin inhibition of cholesterol production; type: cell-based; conditions: statin-treated cultures
Excerpt: Neurite outgrowth was quantified by staining for TUJ1 (a cytoskeletal protein present in both axons and dendrites) and measuring TUJ1+ area (the average of 5 randomly selected fields per well, 6 wells per treatment). *P<0.05 SNK, n=6 all groups.
Neurite outgrowth was quantified by staining for TUJ1 (a cytoskeletal protein present in both axons and dendrites) and measuring TUJ1+ area (the average of 5 randomly selected fields per well, 6 wells per treatment).

SH-SY5Y cells = assay: Cellular cholesterol content, amplex red colorimetric assay; type: cell-based, human; conditions: 100 nM, 72 hours (FIG. 22)
Description: FIG. 22 is a graph plotting human neuronal (SH-SY5Y) cells grown in the presence of the small molecule PAR1 inhibitor, Vorapaxar (“Vora,” at 100 nM) or control for 72 hours. […] Cholesterol content was quantified by the amplex red colorimetric assay. Finally, cholesterol levels were evaluated in a human neuronal cell line (SH-SY5Y cells) grown in the presence of the small molecule PAR1 inhibitor, Vorapaxar, for 72 hours.

[3] = test system: primary mouse cortical neurons; assay: Synaptogenesis (Homer puncta per TUJ1+ area) in primary cortical neurons; type: cell-based; conditions: co-treatment with subtherapeutic BDNF; 24 and 72 hours of treatment (FIG. 13)
Description: FIG. 13 contains images showing that inhibition of PAR1 signaling accelerates synaptogenesis in primary mouse cortical neurons. Murine neurons were cultured in vitro for 24 hours before addition of the PAR1 inhibitor Vorapaxar, subtherapeutic growth factor BDNF, Or both. […] Synapse density was quantified by staining for Homer, a scaffold protein concentrated at the post-synaptic densities by counting puncta in ImageJ. Synapse counts were normalized by total neurite area (TUJ1+ area) to determine the density of synapses on neurites (average of 5 randomly selected fields per well, 6 wells per treatment). Results are plotted in the graphs in the right panel *P<0.05 SNK, n=6 all groups, both timepoints). Inhibition of PAR1 signaling also accelerated synaptogenesis in primary mouse cortical neurons (FIG. 13). Murine neurons were cultured in vitro for 24 hours before addition of the PAR1 inhibitor Vorapaxar, subtherapeutic growth factor BDNF, or both. […] Synapse density was quantified by staining for Homer, a scaffold protein concentrated at the post-synaptic densities by counting puncta in ImageJ. Synapse counts were normalized by total neurite area (TUJ1+ area) to determine the density of synapses on neurites (average of 5 randomly selected fields per well, 6 wells per treatment).

HMGCS1 = HMGCS1 expression in primary cortical neurons (real-time quantitative PCR); type: cell-based, murine
Description: FIG. 3 is a graph plotting HMGCS1 expression in cultures of primary cortical neurons treated with the PAR1 small molecule inhibitor Vorapaxar (100 nM) or vehicle control for 72 hours.
Expression of HMGCS1, an enzyme responsible for production of HMGCoA for the rate-limiting step in cholesterol biosynthesis, was quantified by real-time quantitative PCR.
HMGCS1 is responsible for production of HMGCoA for the rate-limiting step in cholesterol biosynthesis.

| Molecule | production of neurites (TUJ1+ area) [1] | growth of new neurites through the injury zone (TUJ1+ area in the scratch) (Murine neurons) | recovery of neurite production (TUJ1+ area) from statin treatment ([2]; agent alone (FIG. 16)) | recovery of neurite production (TUJ1+ area) from statin treatment ([2]; co-treatment of PAR1 inhibitor with subtherapeutic BDNF (FIG. 16)) | cellular cholesterol vs untreated cells (SH-SY5Y cells) | production of synaptic densities (Homer puncta normalized by TUJ1+ area) [3] | HMGCS1 expression (HMGCS1; primary cortical neurons, 100 nM, 72 hours, vs vehicle-treated controls (FIG. 3)) | expression of HMGCS1 (real-time quantitative PCR) (HMGCS1; primary murine cortical neurons, with or without co-treatment with BDNF (FIG. 15)) |
| --- | --- | --- | --- | --- | --- | --- | --- | --- |
| CCOC(=O)N[C@@H]1CC[C@@H]2[C@@H](C1)C[C@H]1C(=O)O[C@H](C)[C@H]1[C@H]2/C=C/c1ccc(-c2cccc(F)c2)cn1 [Vorapaxar] | potentiated the effect of BDNF, significantly increasing production of neurites | potentiated the effect of BDNF, significantly increasing growth of new neurites through the injury zone | did not result in recovery of neurite production | partially rescued neurite production from statin treatment | more than twice the amount of cellular cholesterol | potentiated the effect of BDNF, significantly increasing production of synaptic densities | promoted increases in HMGCS1 expression | increased the expression of HMGCS1 |
| B1 |  |  | did not result in recovery of neurite production |  |  |  |  |  |
